Paper PMC9848256 (Journal of Enzyme Inhibition and Medicinal Chemistry, 2023)

Test: in vivo
Conditions: male, SD, rat, iv, 1 mg/kg
Description: The preliminary pharmacokinetic study was conducted in male SD rats. Two groups with three mice each were set by random. […] The liquid chromatography tandem mass spectrometry (LC-MS/MS) method was pre-built. The system consisted of LC-20AD High Performance Liquid Chromatography (Shimazu, Japan) with Venusil C18 Plus column (2.1*50 mm, 5.0 μm, Agela, USA) and API 4000 mass spectrometry (AB, USA). […] In the LC method, mobile phase A was distilled water and mobile phase B was acetonitrile. The rinse port wash solution was methanol. The flow rate was 0.700 ml/min and the initial back pressure was 8.9 Mpa. […] The subsequent calculation was under a non-compartmental model statistical moment method with WinNonlin 7.0 software (USA).
Two modes of administration were applied. One was the intragastric injection (i.g., or “PO” for “per os”) at a dosage (D) of 3.0 mg/kg, while the other was the intravenous injection (i.v., or “IV”) at a dosage of 1.0 mg/kg.

AUC(0-inf): 184 ± 74.4 ng·h/mL
AUC(0-t): 159 ± 65 ng·h/mL
Cmax: 284 ± 270 ng/mL
Tmax: 5 min
half-life: 32.3 ± 13.7 min
Structure (SMILES): CCCCS(=O)(=O)Oc1ccc(/C=C/C(=O)Nc2cccc(Br)c2)cc1 [Spartinin C10, (E)-4–(3-((3-bromophenyl)amino)-3-oxoprop-1-en-1-yl)phenylbutane-1-sulphonate]
